{
  "source": "DBAASP",
  "assay_in_all_cases": "≥ marks a high value that may be exact or a test limit, other limits are often not marked, values filed in µg/mL are converted to µM",
  "key": {"[1]": {"test_system": "Bacillus subtilis KCTC 1918"}, "[2]": {"test_system": "Escherichia coli KCTC 1682"}, "[3]": {"test_system": "Pseudomonas aeruginosa KCTC 1637"}, "[4]": {"test_system": "Proteus vulgaris"}, "[5]": {"test_system": "Bacillus megaterium KCTC 1096"}, "[6]": {"test_system": "Staphylococcus aureus KCTC 1621"}, "[7]": {"test_system": "Salmonella enterica subsp. enterica serovar Typhimurium ATCC 14028"}, "[8]": {"test_system": "Proteus mirabilis ATCC 25933"}, "[9]": {"test_system": "Staphylococcus aureus ATCC 29213"}, "[10]": {"test_system": "Klebsiella pneumoniae ATCC 13885"}, "[11]": {"test_system": "Pseudomonas aeruginosa ATCC 15442"}, "[12]": {"test_system": "Enterococcus faecalis ATCC 12953"}, "[13]": {"test_system": "Streptococcus pyogenes ATCC 19615"}, "[14]": {"test_system": "Escherichia coli ATCC 8739"}, "[15]": {"test_system": "Bacillus subtilis ATCC 6633"}, "[16]": {"test_system": "Xanthomonas fragariae Xf349-9A"}, "[17]": {"test_system": "Xanthomonas arboricola pv. pruni CFBP 5563"}, "[18]": {"test_system": "Erwinia amylovora PMV 6076"}, "[19]": {"test_system": "Pseudomonas syringae pv. actinidiae Psa3700.1.1"}, "[20]": {"test_system": "Pseudomonas syringae pv. syringae EPS 94"}, "[21]": {"test_system": "Xanthomonas campestris pv. Vesicatoria 2133-2"}, "[22]": {"test_system": "Escherichia coli CVCC 1515"}, "[23]": {"test_system": "Escherichia coli ER2566"}, "[24]": {"test_system": "Candida albicans"}, "[25]": {"test_system": "Neisseria gonorrhoeae F-62"}, "[26]": {"test_system": "Neisseria gonorrhoeae FA-19"}, "[27]": {"test_system": "Escherichia coli 078"}, "[28]": {"test_system": "Escherichia coli"}, "[29]": {"test_system": "Staphylococcus aureus ATCC 25923"}, "[30]": {"test_system": "Pseudomonas aeruginosa ATCC 27853"}, "[31]": {"test_system": "Pseudomonas aeruginosa ATCC 21630"}, "[32]": {"test_system": "Staphylococcus epidermidis ATCC 12228"}, "[33]": {"test_system": "Pseudomonas aeruginosa ATCC 10419"}, "[34]": {"test_system": "Pseudomonas aeruginosa ATCC 21625"}, "[35]": {"test_system": "Salmonella enterica subsp. enterica serovar Pullorum C79-13"}, "[36]": {"test_system": "Enterococcus faecalis ATCC 29212"}, "[37]": {"test_system": "Escherichia coli UB1005"}, "[38]": {"test_system": "Bacillus subtilis ATCC 11060"}, "[39]": {"test_system": "Escherichia coli CMCC 44102"}, "[40]": {"test_system": "Salmonella enterica subsp. enterica serovar Typhimurium C77-31"}, "[41]": {"test_system": "Listeria monocytogenes"}, "[42]": {"test_system": "Escherichia coli K88"}, "[43]": {"test_system": "Pseudomonas aeruginosa 08031014"}, "[44]": {"test_system": "Staphylococcus aureus ATCC 2592"}, "[45]": {"test_system": "Staphylococcus aureus 08A875"}, "[46]": {"test_system": "Candida albicans SC5314"}, "[47]": {"test_system": "Candida albicans 08022821"}, "[48]": {"test_system": "Pseudomonas aeruginosa"}, "[49]": {"test_system": "Candida albicans ATCC 2002"}, "[50]": {"test_system": "Candida albicans 08022710"}, "[51]": {"test_system": "Staphylococcus aureus 08A865"}},
  "note": "Where “and” joins values, the source holds several entries; their conditions need not be identical. Equal entries are not always repeated.",
  "data": [
    {"smiles": "CC[C@H](C)[C@H](NC(=O)[C@H](CCCCN)NC(=O)[C@H](CCCCN)NC(=O)[C@H](Cc1ccccc1)NC(=O)[C@H](CC(C)C)NC(=O)[C@H](CCCCN)NC(=O)[C@H](Cc1c[nH]c2ccccc12)NC(=O)[C@@H](N)CCCCN)C(=O)N1CCC[C@H]1C(=O)N[C@@H](CC(C)C)C(=O)N[C@@H](Cc1cnc[nH]1)C(=O)N[C@@H](CC(C)C)C(=O)N[C@@H](C)C(=O)N[C@@H](CCCCN)C(=O)N[C@@H](CCCCN)C(=O)N[C@@H](Cc1ccccc1)C(N)=O", "note": "[KWKLFKKIPLHLAKKF]", "values": [
      {"measurement": "MIC", "setting": "[1]", "value": 1.1, "unit": "µM"},
      {"measurement": "MIC", "setting": "[2]", "value": 8.84, "unit": "µM"},
      {"measurement": "MIC", "setting": "[3]", "value": 6.25, "unit": "µM"},
      {"measurement": "MIC", "setting": "[4]", "value": 1.56, "unit": "µM"},
      {"measurement": "MIC", "setting": "[5]", "value": 3.12, "unit": "µM"},
      {"measurement": "MIC", "setting": "[6]", "value": 3.12, "unit": "µM"}
    ]},
    {"smiles": "CC[C@H](C)[C@H](N)C(=O)N[C@@H](Cc1ccc(O)cc1)C(=O)N[C@@H](Cc1ccc(O)cc1)C(=O)N1CCC[C@H]1C(=O)N1CCC[C@H]1C(=O)N[C@@H](CC(N)=O)C(=O)N[C@@H](Cc1cnc[nH]1)C(=O)N[C@@H](CC(N)=O)C(=O)N[C@@H](Cc1ccccc1)C(=O)N1CCC[C@H]1C(N)=O", "note": "[IYYPPNHNFP]", "values": [
      {"measurement": "MIC", "setting": "[7]", "value": 203, "unit": "µM"},
      {"measurement": "MIC", "setting": "[8]", "value": "≥ 101", "unit": "µM"},
      {"measurement": "MIC", "setting": "[9]", "value": 203, "unit": "µM"},
      {"measurement": "MIC", "setting": "[10]", "value": "≥ 101", "unit": "µM"},
      {"measurement": "MIC", "setting": "[11]", "value": "≥ 203", "unit": "µM"},
      {"measurement": "MIC", "setting": "[12]", "value": "≥ 101", "unit": "µM"},
      {"measurement": "MIC", "setting": "[13]", "value": "≥ 101", "unit": "µM"},
      {"measurement": "MIC", "setting": "[14]", "value": "≥ 203", "unit": "µM"},
      {"measurement": "MIC", "setting": "[15]", "value": "≥ 203", "unit": "µM"}
    ]},
    {"smiles": "CC[C@H](C)[C@H](NC(=O)[C@H](CCCCN)NC(=O)[C@H](CCCCN)NC(=O)[C@H](CC(C)C)NC(=O)[C@H](CC(=O)O)NC(=O)[C@@H](NC(=O)[C@@H](N)Cc1ccccc1)C(C)C)C(=O)N[C@@H](C)C(=O)N[C@@H](CC(N)=O)C(=O)N[C@H](C(=O)N[C@H](C(=O)N[C@@H](CC(N)=O)C(=O)N[C@@H](CO)C(=O)N[C@H](C(=O)N[C@@H](Cc1ccccc1)C(=O)NCC(=O)N[C@@H](CCCCN)C(N)=O)[C@@H](C)CC)[C@@H](C)CC)[C@@H](C)CC", "note": "[FVDLKKIANIINSIFGK]", "values": [
      {"measurement": "MIC", "setting": "[16]", "value": "≥ 50", "unit": "µM"},
      {"measurement": "MIC", "setting": "[17]", "value": 2.84, "unit": "µM"},
      {"measurement": "MIC", "setting": "[18]", "value": "≥ 35.4", "unit": "µM"},
      {"measurement": "MIC", "setting": "[19]", "value": "≥ 50", "unit": "µM"},
      {"measurement": "MIC", "setting": "[20]", "value": "≥ 50", "unit": "µM"},
      {"measurement": "MIC", "setting": "[21]", "value": 4.38, "unit": "µM"}
    ]},
    {"smiles": "CC(C)C[C@H](NC(=O)CNC(=O)CNC(=O)CNC(=O)[C@@H](N)CCCNC(=N)N)C(=O)N[C@H]1CSSC[C@@H](C(=O)N[C@H](C(=O)NCC(=O)N[C@@H](CCCNC(=N)N)C(N)=O)C(C)C)NC(=O)[C@H](C(C)C)NC(=O)[C@@H]2CSSC[C@H](NC(=O)[C@H](Cc3ccc(O)cc3)NC1=O)C(=O)N[C@@H](CCCNC(=N)N)C(=O)N[C@@H](CCCNC(=N)N)C(=O)N[C@@H](CCCNC(=N)N)C(=O)N[C@@H](Cc1ccccc1)C(=O)N2", "note": "[RGGGLCYCRRRFCVCVGR]", "values": [
      {"measurement": "MIC", "setting": "[22]", "value": 1.99, "unit": "µM"},
      {"measurement": "MIC", "setting": "[7]", "value": 1.99, "unit": "µM"},
      {"measurement": "MIC", "setting": "[23]", "value": 0.485, "unit": "µM"},
      {"measurement": "MIC", "setting": "[24]", "value": 4.66, "unit": "µM"},
      {"measurement": "MIC", "setting": "[25]", "value": 0.679, "unit": "µM"},
      {"measurement": "MIC", "setting": "[26]", "value": 0.873, "unit": "µM"},
      {"measurement": "MIC", "setting": "[27]", "value": 16.1, "unit": "µM"},
      {"measurement": "MIC", "setting": "[28]", "value": 1.12, "unit": "µM"},
      {"measurement": "MIC", "setting": "[29]", "value": 8.05, "unit": "µM"},
      {"measurement": "MIC", "setting": "[30]", "value": 4.03, "unit": "µM"},
      {"measurement": "MIC", "setting": "[31]", "value": 8.05, "unit": "µM"},
      {"measurement": "MIC", "setting": "[9]", "value": 4.03, "unit": "µM"},
      {"measurement": "MIC", "setting": "[32]", "value": 32.2, "unit": "µM"},
      {"measurement": "MIC", "setting": "[33]", "value": 4.03, "unit": "µM"},
      {"measurement": "MIC", "setting": "[34]", "value": 8.05, "unit": "µM"},
      {"measurement": "MIC", "setting": "[35]", "value": 1.99, "unit": "µM"},
      {"measurement": "MIC", "setting": "[36]", "value": 32.2, "unit": "µM"},
      {"measurement": "MIC", "setting": "[37]", "value": 1.99, "unit": "µM"},
      {"measurement": "MIC", "setting": "[38]", "value": 16.1, "unit": "µM"},
      {"measurement": "MIC", "setting": "[39]", "value": 1.02, "unit": "µM"},
      {"measurement": "MIC", "setting": "[40]", "value": 4.03, "unit": "µM"},
      {"measurement": "MIC", "setting": "[41]", "value": 1.36, "unit": "µM"},
      {"measurement": "MIC", "setting": "[42]", "value": 4.03, "unit": "µM"}
    ]},
    {"smiles": "CC[C@H](C)[C@H](NC(=O)[C@H](Cc1cnc[nH]1)NC(=O)[C@H](CO)NC(=O)[C@@H](NC(=O)[C@@H](NC(=O)[C@@H](NC(=O)[C@@H](NC(=O)[C@H](CCCNC(=N)N)NC(=O)[C@H](CC(C)C)NC(=O)[C@H](CCCCN)NC(=O)[C@H](CCC(=O)O)NC(=O)[C@H](CCCCN)NC(=O)[C@H](CC(C)C)NC(=O)[C@H](CCCCN)NC(=O)[C@@H]1CSSC[C@H](NC(=O)[C@H](CCCCN)NC(=O)[C@@H](N)CCCNC(=N)N)C(=O)N[C@@H](CC(N)=O)C(=O)N[C@@H](Cc2ccccc2)C(=O)N[C@@H](CC(C)C)C(=O)N1)[C@@H](C)O)C(C)C)[C@@H](C)CC)[C@@H](C)O)C(=O)N[C@@H](CC(=O)O)C(=O)N[C@@H](CCCCN)C(=O)N[C@H](C(=O)N[C@@H](CC(C)C)C(=O)N[C@@H](CCCNC(=N)N)C(=O)N1CCC[C@H]1C(=O)N[C@@H](CCC(N)=O)C(=O)NCC(=O)O)C(C)C", "note": "[RKCNFLCKLKEKLRTVITSHIDKVLRPQG]", "values": [
      {"measurement": "MIC", "setting": "[43]", "value": 10.9, "unit": "µM"},
      {"measurement": "MIC", "setting": "[44]", "value": "2.74 µM and 1.37 µM"},
      {"measurement": "MIC", "setting": "[24]", "value": 1.37, "unit": "µM"},
      {"measurement": "MIC", "setting": "[28]", "value": 1.94, "unit": "µM"},
      {"measurement": "MIC", "setting": "[30]", "value": "5.47 µM and > 2.74 µM"},
      {"measurement": "MIC", "setting": "[9]", "value": "> 64", "unit": "µM"},
      {"measurement": "MIC", "setting": "[45]", "value": 5.47, "unit": "µM"},
      {"measurement": "MIC", "setting": "[46]", "value": "≥ 64", "unit": "µM"},
      {"measurement": "MIC", "setting": "[47]", "value": 2.74, "unit": "µM"},
      {"measurement": "MIC", "setting": "[48]", "value": 2.74, "unit": "µM"},
      {"measurement": "MIC", "setting": "[49]", "value": "1.37 µM and 0.686 µM"},
      {"measurement": "MIC", "setting": "[50]", "value": 5.47, "unit": "µM"},
      {"measurement": "MIC", "setting": "[51]", "value": 2.74, "unit": "µM"},
      {"measurement": "MIC", "setting": "[15]", "value": "29.2 µM and 21.9 µM"}
    ]}
  ]
}
